{"source": "patent US20240417798A1", "about": "“THERAPY SELECTION AND TREATMENT OF NEURODEGENERATIVE DISORDERS” (Anavex Life Sciences Corp., priority 2021, published 2024)", "key": {"SIGMAR1": {"test_system": "SIGMAR1", "assay": "SIGMAR1 levels in patients of the PDD-001 trial", "type": "in vivo, human", "conditions": "use by PDD patients; rise associated with improved attention measures and reduced MDS-UPDRS total and Part III", "experimental": "The trial enrolled 132 adults, ages 50-85, with PDD, and was successfully concluded in September 2020. Participants, recruited at multiple sites in Spain and Australia, were randomly assigned to one of two doses groups (with an escalating ANAVEX 2-73 dose up to 30 or 50 mg oral capsules) or to a placebo, once daily for 14 weeks (see FIG. 1 for details). The trial's main goals were to assess the therapy's safety and changes in patients' cognitive function, measured using the cognitive drug research computerized assessment system—a test that looks at multiple cognitive skills, such as choice reaction time (choosing between similar objects), vigilance, and episodic memory (remembering new personal experiences or shared information). Secondary goals included changes in patients' motor abilities—assessed with the Movement Disorders Society Unified Parkinson's Disease Rating Scale (MDS-UPDRS) Part III—and sleep quality. […] This sleep disorder is associated with greater cognitive impairment and a higher risk of dementia. […] After 14 weeks, the MDS-UPDRS total score dropped by 10.98 points (indicating an easing in disease severity) in the high-dose group and rose by 3.53 points in the placebo group. This represented an adjusted mean improvement of 14.51 points—surpassing the established, clinically meaningful 7.1 point-cut-off—and a relative improvement of 18.9% over 14 weeks. […]"}, "[1]": {"target": "T1, Sigma-1 receptor (SIGMAR1) (Homo sapiens, UniProt Q99720)", "T1 construct": "host or cells: in vivo PET scan", "T1 sequence (Q99720 whole entry, species assumed)": "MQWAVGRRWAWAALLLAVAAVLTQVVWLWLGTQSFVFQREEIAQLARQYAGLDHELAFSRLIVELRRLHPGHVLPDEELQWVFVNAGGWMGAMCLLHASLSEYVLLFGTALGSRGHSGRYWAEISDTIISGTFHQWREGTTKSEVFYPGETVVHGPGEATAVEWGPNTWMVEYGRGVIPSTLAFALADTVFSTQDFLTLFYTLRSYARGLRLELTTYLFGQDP", "conditions": "quantitative PET scan; cited from earlier work"}, "[2]": {"test_system": "gene clusters (Cluster 1, Cluster 2) of neurodegenerative pathways", "assay": "Whole Blood Transcriptomics Analysis (RNAseq) of PDD patients, baseline vs Week 14, WGCNA gene clusters and pathway analysis", "type": "in vivo, human", "experimental": "In order to gain insights into ANAVEX 2-73 response pathways, during the Phase 2 study, patients' DNA and RNA sequencing were analyzed. Transcriptomic samples of 65 patients enrolled in either High Dose or Mid Dose arms were collected at baseline and at the end of treatment (Week 14). The expression of 14,150 genes was measured. No transformation was applied to the TPM values. Values associated with a with RIN≤4.0 were discarded. The actual dose of ANAVEX 2-73 (blarcamesine) that was given to each patient during the trial was assessed and integrated into the database. […]\nThe genes were clustered together using WGCNA, starting from their correlation of TPM expression values across samples. […] For each cluster, the contrast ActualDose, i.e. treated vs placebo were evaluated across all timepoints. […] The ratio between cluster size and number of pathways was calculated, and top 2 clusters were retained for further Analysis. […] Known interactions between the genes of the cluster were assessed using STRING database with the parameters of Edge score >0.150, and no text mining edges. […]\nWhole Blood Transcriptomics Analysis (RNAseq) of patients with Parkinson's disease dementia (PDD) was performed for the ANAVEX®2-73-PDD-001 study (FIG. 1) at two timepoints: Baseline and Week 14 (end of trial). All available RNA samples with […] (RNA integrity number, using 130 samples) were analyzed. […]"}, "[3]": {"test_system": "patients with Parkinson's Disease Dementia (PDD)", "assay": "Phase 2 ANAVEX2-73-PDD-001 study, randomized, double blind, placebo-controlled, oral capsules once daily for 14 weeks", "type": "in vivo, human", "experimental": "In order to assess the safety, tolerability and efficacy of ANAVEX®2-73 (blarcamesine) oral capsules in treating cognitive impairment in patients with Parkinson's Disease with Dementia (PDD), a phase 2 study, coded “ANAVEX®2-73-PDD-001 study” (FIG. 1), was conducted. The study was multi-center, randomized, double blind, placebo-controlled, parallel group with 3-arm. The study included a 2-week Screening/Baseline Observation Period and a 14-week Treatment Period (including a 2 week Titration Period), and a 2-week Safety Follow-Up Period. A total of 132 patients were enrolled in the study and were randomly assigned to three testing arms (FIG. 1). In ANAVEX2-73 High Dose arm, 44 patients were given oral capsules of ANAVEX2-73 once daily in an escalating dose of 10 mg, 20 mg, 30 mg and 50 mg. In ANAVEX2-73 Mid Dose arm, 44 patients were given oral capsules of ANAVEX2-73 once daily in an escalating dose of 10 mg, 20 mg, and 30 mg. In placebo group, 44 patients were given placebo capsules. Outcome measures included Cognitive Drug Research (CDR) Computerized Assessment System on Continuity of Attention; Change from Baseline to End of Treatment in Continuity of Attention as measured by Cognitive Drug Research (CDR) Computerized Assessment System Continuity of Attention; Number of participants with treatment-related adverse events as assessed by CTCAE v4.0 [Time Frame: 14 weeks]; Assessment of the safety and tolerability of ANAVEX2-73 compared to placebo; MDS-UPDRS Part III Total Score (Motor Scores); Change from baseline to End of Treatment as measured by MDS-UPDRS Part III Total Score (Motor Scores); SDS-CL-25 [Time Frame: 14 weeks]; Incidence of sleep disorders symptoms (SDS-CL-25); and DNA/RNA Sequencing.\nThe trial enrolled 132 adults, ages 50-85, with PDD, and was successfully concluded in September 2020. Participants, recruited at multiple sites in Spain and Australia, were randomly assigned to one of two doses groups (with an escalating ANAVEX 2-73 dose up to 30 or 50 mg oral capsules) or to a placebo, once daily for 14 weeks (see FIG. 1 for details). The trial's main goals were to assess the therapy's safety and changes in patients' cognitive function, measured using the cognitive drug research computerized assessment system—a test that looks at multiple cognitive skills, such as choice reaction time (choosing between similar objects), vigilance, and episodic memory (remembering new personal experiences or shared information). Secondary goals included changes in patients' motor abilities—assessed with the Movement Disorders Society Unified Parkinson's Disease Rating Scale (MDS-UPDRS) Part III—and sleep quality. […] This sleep disorder is associated with greater cognitive impairment and a higher risk of dementia. […]"}, "[4]": {"test_system": "patients with Parkinson's Disease Dementia (PDD)", "conditions": "previously reported results; cited from earlier work"}}}
{"smiles": "CN(C)CC1CCOC1(c1ccccc1)c1ccccc1.Cl", "note": "(centres unmarked) [ANAVEX 2-73, tetrahydro-N, N-dimethyl-2,2-diphenyl-3-furanmethanamine hydrochloride]", "values": [{"measurement": "SIGMAR1 levels", "setting": "SIGMAR1", "value": "significant increase in SIGMAR1 levels"}, {"measurement": "Direct occupancy at SIGMAR1", "setting": "[1]", "value": "has been established"}, {"measurement": "Expression of both identified gene clusters, treated patients compared to placebo", "setting": "[2]; after 14 weeks of treatment", "value": "up-regulated"}, {"measurement": "Dysregulations of Cluster 1 and Cluster 2, link to dose", "setting": "[2]; linear mixed effect model, Dunnett's test", "value": "significantly linked to the highest dose"}, {"measurement": "Cognitive and sleep benefits, current trial data", "setting": "[3]; data obtained from the current trial", "value": "confirmed these cognitive and sleep benefits"}, {"measurement": "MDS-UPDRS total score, adjusted mean improvement vs placebo", "setting": "[3]; high dose (50 mg), 14 weeks, clinically meaningful cut-off 7.1 points", "value": 14.51, "unit": "points"}, {"measurement": "MDS-UPDRS total score, relative improvement", "setting": "[3]; high dose (50 mg), over 14 weeks", "value": 18.9, "unit": "%"}, {"measurement": "MDS-UPDRS total score, drop from baseline (easing in disease severity)", "setting": "[3]; high-dose group (50 mg), after 14 weeks", "value": 10.98, "unit": "points"}, {"measurement": "Cognitive skills", "setting": "[4]", "value": "significantly improved several cognitive skills"}, {"measurement": "REM sleep behavior disorder", "setting": "[4]", "value": "lessened REM sleep behavior disorder"}, {"measurement": "Safety", "setting": "[4]", "value": "generally safe"}]}
